Source: US20240132431A1, “METHOD FOR ALKYLATING ACIDIC FUNCTIONAL GROUP” (Chugai Seiyaku Kabushiki Kaisha, priority 2021, published 2024)

Target: T1, Bcl-2 protein (Recombinant Human Bcl-2 Protein) (Homo sapiens, UniProt P10415)
T1 construct: purchased Novus NBP2-34889
Assay: Binding evaluation of mixture library compounds to Bcl-2 using AS-MS (affinity selection mass spectrometry)
Conditions: for ASMS ratio (%) n = 1: replicate n = 1; for ASMS ratio (%) n = 1 / ASMS ratio (%) n = 2: ASMS Ratio(%)=(A−C)/B×100; for ASMS ratio (%) n = 2: replicate n = 2
How it was run: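 Affinity selection MS: Bcl-2 20 μM + 1200-cpd mixture, […]/cpd, Tris pH 7.4 buffer w/ Tween-20, DTT; 1 h 23° C dark; P-2 spin SEC; MeCN/MeOH extraction; RP LC/MS. ASMS Ratio(%) = (A−C)/B×100.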

[1] = AS-MS on the mixture of 1200 library compounds
[2] = AS-MS, mixture of 1200 compounds, Bcl-2

T1 sequence (P10415 whole entry): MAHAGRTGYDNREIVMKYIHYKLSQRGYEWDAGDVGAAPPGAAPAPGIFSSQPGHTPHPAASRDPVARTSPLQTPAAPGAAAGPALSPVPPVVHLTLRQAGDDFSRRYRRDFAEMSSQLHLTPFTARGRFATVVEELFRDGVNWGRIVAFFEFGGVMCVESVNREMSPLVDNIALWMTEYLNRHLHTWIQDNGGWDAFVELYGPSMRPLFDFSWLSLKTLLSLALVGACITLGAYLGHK

Molecule	ASMS ratio (%) n = 1 (AS-MS, mixture library, Bcl-2)	ASMS ratio (%) n = 2 (AS-MS, mixture library, Bcl-2)	ASMS ratio (%) (n = 1)	ASMS ratio (%) (n = 2)	also measured
CCOc1cccc(-c2ccc(CN3CCN(c4ccc(C(=O)NS(=O)(=O)c5ccc(NCCSc6ccccc6)c([N+](=O)[O-])c5)cc4)CC3)c3ccccc23)c1 [B2Q065-01]	30.6%	−1.6%			
CCOc1cccc(-c2ccc(C(=O)N3CCN(c4ccc(C(=O)Nc5ccc(OC)cc5)cc4)CC3)c3ccccc23)c1 [B1O035-01, 4-[4-[4-(3-Ethoxyphenyl)naphthalene-1-carbonyl]piperazin-1-yl]-N-(4-methoxyphenyl)benzamide]					ASMS ratio (%) n = 1 [1]: 4.3%; ASMS ratio (%) n = 2 [1]: −3.7%
CCOc1cccc(-c2ccccc2CN2CCN(c3ccc(C(=O)NS(=O)(=O)CCC(F)(F)F)cc3)CC2)c1 [B2N045-01, 4-[4-[[2-(3-Ethoxyphenyl)phenyl]methyl]piperazin-1-yl]-N-(3,3,3-trifluoropropylsulfonyl)benzamide]			0.0%	0.1%	
CCOc1cccc(-c2ccc(CN3CCN(c4ccc(C(=O)Nc5ccc(OC)cc5)nn4)CC3)cc2F)c1 [B1O077-01, 6-[4-[[4-(3-Ethoxyphenyl)-3-fluorophenyl]methyl]piperazin-1-yl]-N-(4-methoxyphenyl)pyridazine-3-carboxamide]					ASMS ratio (%) n = 1 [1]: 4.1%; ASMS ratio (%) n = 2 [1]: 0.4%
CCOc1cncc(-c2ccc(CN3CCN(c4ccc(C(=O)NCC56CC7CC(CC(C7)C5)C6)nn4)CC3)cc2C)c1 [B1A074-01, N-(1-Adamantylmethyl)-6-[4-[[4-(5-ethoxypyridin-3-yl)-3-methylphenyl]methyl]piperazin-1-yl]pyridazine-3-carboxamide]					ASMS ratio (%) n = 1 [2]: 3.2%; ASMS ratio (%) n = 2 [2]: −0.1%
CCOc1cccc(C#Cc2cncc(C(=O)N3CCN(c4ccc(C(=O)NS(=O)(=O)C(C)(C)C)nn4)CC3)c2)c1 [B2L009-01, N-tert-Butylsulfonyl-6-[4-[5-[2-(3-ethoxyphenyl)ethynyl]pyridine-3-carbonyl]piperazin-1-yl]pyridazine-3-carboxamide]			0.0%	0.0%	
CCOc1cccc(-c2cc(OC)c(CN3CCN(c4ccc(C(=O)Nc5ccc(OC)cc5)cc4)CC3)c(OC)c2)c1 [B1O059-01, 4-[4-[[4-(3-Ethoxyphenyl)-2,6-dimethoxyphenyl]methyl]piperazin-1-yl]-N-(4-methoxyphenyl)benzamide]					ASMS ratio (%) n = 1 [1]: 2.0%; ASMS ratio (%) n = 2 [1]: −1.9%
CCOc1cccc(-c2csc(C(=O)N3CCN(c4ccc(C(=O)NS(=O)(=O)CC56CC7CC(CC(C7)C5)C6)nn4)CC3)c2)c1 [B2A001-01, N-(1-Adamantylmethylsulfonyl)-6-[4-[4-(3-ethoxyphenyl)thiophene-2-carbonyl]piperazin-1-yl]pyridazine-3-carboxamide]	0.0%	0.0%			
CCOc1cccc(-c2ccc(C(C)N3CCN(c4ccc(C(=O)NS(=O)(=O)CC56CC7CC(CC(C7)C5)C6)cc4)CC3)c(F)c2)c1 (stereo not shown) [B2A099-01, N-(1-Adamantylmethylsulfonyl)-4-[4-[1-[4-(3-ethoxyphenyl)-2-fluorophenyl]ethyl]piperazin-1-yl]benzamide]	0.0%	0.0%			
CCOc1cncc(-c2cnn(-c3cc(C(=O)N4CCN(c5ccc(C(=O)Nc6ccc(OC)cc6)nn5)CC4)cc(C(F)(F)F)c3)c2)c1 [B1O022-01, 6-[4-[3-[4-(5-Ethoxypyridin-3-yl)pyrazol-1-yl]-5-(trifluoromethyl)benzoyl]piperazin-1-yl]-N-(4-methoxyphenyl)pyridazine-3-carboxamide]					ASMS ratio (%) n = 1 [1]: 5.6%; ASMS ratio (%) n = 2 [1]: −1.2%
CCOc1cccc(-c2cnn(-c3cc(C(=O)N4CCN(c5ccc(C(=O)NS(=O)(=O)C(C)(C)C)cc5)CC4)cc(C(F)(F)F)c3)c2)c1 [B2L043-01, N-tert-Butylsulfonyl-4-[4-[3-[4-(3-ethoxyphenyl)pyrazol-1-yl]-5-(trifluoromethyl)benzoyl]piperazin-1-yl]benzamide]			0.0%	0.0%	
6-[4-[[2-[2-(5-Ethoxypyridin-3-yl)ethynyl]phenyl]methyl]piperazin-1-yl]-N-propylpyridazine-3-carboxamide [B1M055-01]					ASMS ratio (%) n = 1 [2]: 3.9%; ASMS ratio (%) n = 2 [2]: −1.2%
CCOc1cncc(-c2ccc(CN3CCN(c4ccc(C(=O)NCC56CC7CC(CC(C7)C5)C6)cc4)CC3)c(CC)c2)c1 [B1A050-01, N-(1-Adamantylmethyl)-4-[4-[[4-(5-ethoxypyridin-3-yl)-2-ethylphenyl]methyl]piperazin-1-yl]benzamide]					ASMS ratio (%) n = 1 [2]: 0.6%; ASMS ratio (%) n = 2 [2]: 3.0%
CCOc1cccc(-c2ccc(CN3CCN(c4ccc(C(=O)NS(=O)(=O)c5ccc(NCCSc6ccccc6)c(C(F)(F)F)c5)nn4)CC3)cc2F)c1 [B2R077-01, 6-[4-[[4-(3-Ethoxyphenyl)-3-fluorophenyl]methyl]piperazin-1-yl]-N-[4-(2-phenylsulfanylethylamino)-3-(trifluoromethyl)phenyl]sulfonylpyridazine-3-carboxamide]			0.0%	0.0%	
CCOc1cccc(-c2ccc(CN3CCN(c4ccc(C(=O)NCC(F)(F)F)nn4)CC3)c(OC)c2)c1 [B1K079-01, 6-[4-[[4-(3-Ethoxyphenyl)-2-methoxyphenyl]methyl]piperazin-1-yl]-N-(2,2,2-trifluoroethyl)pyridazine-3-carboxamide]					ASMS ratio (%) n = 1 [2]: 2.2%; ASMS ratio (%) n = 2 [2]: −1.3%

Now from value to molecule, other results behind:

ASMS ratio (%) n = 1 (AS-MS, mixture library, Bcl-2)	ASMS ratio (%) n = 2 (AS-MS, mixture library, Bcl-2)	ASMS ratio (%) (n = 1)	ASMS ratio (%) (n = 2)	Molecule	also measured
16.1%	5.6%			CCOc1cccc(-c2ccccc2CN2CCN(c3ccc(C(=O)NS(=O)(=O)CC45CC6CC(CC(C6)C4)C5)nn3)CC2)c1 [B2A071-01, N-(1-Adamantylmethylsulfonyl)-6-[4-[[2-(3-ethoxyphenyl)phenyl]methyl]piperazin-1-yl]pyridazine-3-carboxamide]	
		5.1%	7.8%	CCOc1cncc(-c2cc(C(=O)N3CCN(c4ccc(C(=O)NS(=O)(=O)c5ccc(NCCSc6ccccc6)c(C(F)(F)F)c5)nn4)CC3)cc(C(F)(F)F)c2)c1 [B2R018-01, 6-[4-[3-(5-Ethoxypyridin-3-yl)-5-(trifluoromethyl)benzoyl]piperazin-1-yl]-N-[4-(2-phenylsulfanylethylamino)-3-(trifluoromethyl)phenyl]sulfonylpyridazine-3-carboxamide]	
9.5%	2.2%			CCOc1cncc(-c2ccc(C(=O)N3CCN(c4ccc(C(=O)NS(=O)(=O)c5ccc(NCCSc6ccccc6)c([N+](=O)[O-])c5)nn4)CC3)cc2F)c1 [B2Q006-01, 6-[4-[4-(5-Ethoxypyridin-3-yl)-3-fluorobenzoyl]piperazin-1-yl]-N-[3-nitro-4-(2-phenylsulfanylethylamino)phenyl]sulfonylpyridazine-3-carboxamide]	
		0.0%	0.0%	CCOc1cccc(-c2ccccc2CCC(=O)N2CCN(c3ccc(C(=O)NS(=O)(=O)CCC(F)(F)F)cc3)CC2)c1 [B2N033-01, 4-[4-[3-[2-(3-Ethoxyphenyl)phenyl]propanoyl]piperazin-1-yl]-N-(3,3,3-trifluoropropylsulfonyl)benzamide]	
−0.7%	1.5%			CCOc1cncc(-c2ccc(C(=O)N3CCN(c4ccc(C(=O)NS(C)(=O)=O)cc4)CC3)c3ccccc23)c1 [B2I036-01, 4-[4-[4-(5-Ethoxypyridin-3-yl)naphthalene-1-carbonyl]piperazin-1-yl]-N-methylsulfonylbenzamide]	
